Reference: patent US20220334127A1, “IN VITRO METHOD FOR OBTAINING CLINICAL DATA IN PATIENTS SUFFERING FROM AN INFLAMMATORY DISEASE” (FUNDACIÓN PARA LA FORMACIÓN E INVESTIGACIÓN SANITARIAS DE …, priority 2019, published 2022)

Key:
HIF-1α = HIF-1α staining in human monocytes by flow cytometry; format: cell-based; conditions: ATP 1 mM 30 min; for HIF-1α expression induced by ATP treatment: AZ11645373 10 μM or PDTC 10 μM (FIG. 7e); for HIF-1α expression by the agent itself: washed, cultured 2 h (FIG. 7e)
Method: Human peripheral blood mononuclear cells (PBMCs) were isolated from blood within one hour after extraction using Ficoll histopaque 1077 (Sigma-Aldrich). […] Cells were treated with ATP (Sigma-Aldrich), antimycin A (Sigma-Aldrich) or FCCP (Sigma-Aldrich) in the presence or absence of PDTC (Sigma-Aldrich) or echinomycin (Sigma-Aldrich) in E-total buffer (147 mM NaCl, 10 mM HEPES, 13 mM glucose, 2 mM CaCl2), 1 mM MgCl2, and 2 mM KCl) and then washed and stimulated with E. coli LPS O55:B5 in their respective complete media. […] After LPS treatment, cells were incubated with P2X7 modulating nanobodies, the specific P2X7 receptor antagonist A438079 or AZ11645373 (Tocris), and then subsequently stimulated with ATP or nigericin (Sigma-Aldrich) in E-total buffer. Times and concentrations for the reagents used are specified in the figure legends.
HIF-1α expression was detected in CD14^+ monocytes using Alexa Fluor-647 mouse anti-human HIF-1α (BD Biosciences, Clone 54) at 1:1000 dilution.

Cell death (LDH assay) = format: cell-based
Method: Presence of LDH in cell-free supernatants was measured using the Cytotoxicity Detection kit (Roche) following the manufacturer's instructions.

NLRP3 inflammasome [1] = assay: IL-1β release from BMDMs pre-treated, washed, LPS-primed and stimulated with nigericin; format: cell-based, mouse; conditions: for IL-1β release after mitochondrial depolarizing agent: wild type or P2rx7−/− BMDMs, antimycin A 5 μM or FCCP 1 μM 30 min, then LPS 1 μg/ml 4 h, nigericin 10 μM 30 min (FIG. 6d)
Method: FIG. 6. P2X7 receptor stimulation induces an impairment of the NLRP3 inflammasome in monocytes. (a-b) Percentage of monocytes with ASC-specks (a) and release of […] from PBMCs (b) isolated from healthy donor blood samples treated with ATP (3 mM, 30 min; ATP-pre), then washed and primed with or without LPS (1 μg/ml, 2 h) and then treated for 20 min with ATP (3 mM; ATP-post) or nigericin (10 μM) as indicated. (c) IL-1β release from wild type or P2rx7^−/− BMDMs treated as in a, but with 4 h LPS priming and 30 min of ATP or nigericin. (d) IL-1β release from wild type or P2rx7^−/− BMDMs treated for 30 min with antimycin A (5 μM) or FCCP (1 μM) and then washed and primed with LPS (1 μg/ml, 4 h) and then stimulated with nigericin (10 μM, 30 min) as indicated. (e) Expression of Nrlp3 and Illb genes analyzed by quantitative PCR from wild type or P2rx7^−/− BMDMs treated with ATP (3 mM, 30 min; ATP-pre), then washed and primed with or without LPS (100 ng/ml, 4 h). (f) Kaplan-Meier representation of wild type (top) or P2rx7^−/− (bottom) mice survival after sham operation (dotted line), or CLP operation (continuous line); some mice groups were i.p. injected with ATP (0.5 mg/g) 30 min before operation (dashed lines). Wild type CLP n=10, CLP+ATP n=8, sham n=4, sham+ATP n=4; P2rx7^−/− CLP n=4, CLP+ATP n=6, sham n=3. (g) IL-1β from peritoneal lavage (left) or bacterial load in blood (right) from wild type sham, CLP or CLP+ATP mice after 24 h. Each dot represents a single independent experiment (c,d), a sample from an individual healthy donor (a,b,e) or a single mouse (g); average±standard error is represented in panels a-e,g; *p<0.05; **p<0.01; ns, no significant difference (p>0.05); Mann-Whitney test was used for a,b,d,e; Kruskal-Wallis test was used for c; Long-rank test for f.
(§1) FIG. 7. Mitochondrial dysfunction mediates P2X7 receptor induced NLRP3 inflammasome impairment. (a) Mitochondrial membrane depolarization in BMDMs treated with ATP (3 mM, 30 min), then washed out and incubated for the indicated times in the absence or presence of LPS (1 μg/ml) as indicated. […] (e) Representative histogram plot of HIF-1α staining (left) or quantification of HIF-1α mean intensity fluorescence increase (ΔMFI, right) in monocytes isolated from healthy donor blood samples and treated or not with ATP (1 mM, 30 min) in the presence or absence of AZ11645373 (10 μM) or PDTC (10 μM), and then washed and cultured for 2 h; non-stained monocytes (light grey, left). […] (g) Expression of HIF1A gene analyzed by quantitative PCR from control surgery group and septic patients PBMCs; septic patients are separated into NLRP3 non-immunocompromised (grey bar) and immunocompromised (black bar). […]

BMDMs = assay: ATP-induced mitochondrial membrane depolarization in BMDMs with or without antioxidant; format: cell-based, mouse; conditions: ATP 3 mM 30 min, PDTC 40 μM (FIG. 7c)
Method: as §1, with “indicated. (b) IL-1β release from wild-type BMDMs treated as in a, but after LPS priming cells were stimulated with nigericin (10 μM, 30 min). (c) Mitochondrial membrane depolarization in BMDMs treated with ATP (3 mM, 30 min) in the presence or absence pyrrolidine dithiocarbamate (PDTC, 40 μM).” for “indicated.”

NLRP3 inflammasome [2] = assay: IL-1β release from PBMCs of healthy donors pre-treated with ATP, LPS-primed and stimulated with nigericin; format: cell-based; conditions: human PBMCs, ATP-pre 1 mM 30 min with PDTC 10 μM, LPS 1 μg/ml 4 h, nigericin 10 μM 30 min (FIG. 7d)
Method: as §1, with “indicated. (b) IL-1β release from wild-type BMDMs treated as in a, but after LPS priming cells were stimulated with nigericin (10 μM, 30 min). (c) Mitochondrial membrane depolarization in BMDMs treated with ATP (3 mM, 30 min) in the presence or absence pyrrolidine dithiocarbamate (PDTC, 40 μM).” for “indicated.”

Nlrp3 and Illb = assay: Quantitative PCR of Nlrp3 and Il1b gene induction by LPS; format: cell-based, mouse
Method: FIG. 6. P2X7 receptor stimulation induces an impairment of the NLRP3 inflammasome in monocytes. (a-b) Percentage of monocytes with ASC-specks (a) and release of […] from PBMCs (b) isolated from healthy donor blood samples treated with ATP (3 mM, 30 min; ATP-pre), then washed and primed with or without LPS (1 μg/ml, 2 h) and then treated for 20 min with ATP (3 mM; ATP-post) or nigericin (10 μM) as indicated. (c) IL-1β release from wild type or P2rx7^−/− BMDMs treated as in a, but with 4 h LPS priming and 30 min of ATP or nigericin. (d) IL-1β release from wild type or P2rx7^−/− BMDMs treated for 30 min with antimycin A (5 μM) or FCCP (1 μM) and then washed and primed with LPS (1 μg/ml, 4 h) and then stimulated with nigericin (10 μM, 30 min) as indicated. (e) Expression of Nrlp3 and Illb genes analyzed by quantitative PCR from wild type or P2rx7^−/− BMDMs treated with ATP (3 mM, 30 min; ATP-pre), then washed and primed with or without LPS (100 ng/ml, 4 h). […]
Detailed methods used for qRT-PCR have been described in the prior art. Relative gene expression levels were calculated using the 2^−ΔCt method normalizing to Hprt1 expression as endogenous control.

| Compound | HIF-1α expression induced by ATP treatment (HIF-1α) | HIF-1α expression by the agent itself (HIF-1α) | cell death (Cell death (LDH assay)) | IL-1β release after mitochondrial depolarizing agent (NLRP3 inflammasome [1]) | other results |
| --- | --- | --- | --- | --- | --- |
| O=C1CSC(=O)N1C(CCc1ccncc1)COc1ccc(-c2cccc([N+](=O)[O-])c2)cc1 (stereo not drawn) [AZ116] | able to prevent it | – | – | – | – |
| N#CC(C#N)=NNc1ccc(OC(F)(F)F)cc1 [FCCP] | – | did not increase | did not induce cell death | reduced | – |
| S=C(S)N1CCCC1 [PDTC, pyrrolidine dithiocarbamate] | able to prevent it | – | – | – | ATP-induced mitochondrial membrane depolarization (BMDMs): able to protect; production of IL-1β after ATP stimulation before LPS-priming and NLRP3 activation (NLRP3 inflammasome [2]): restored |
| CS[C@H]1SC[C@H]2C(=O)N(C)[C@@H](C(C)C)C(=O)OC[C@@H](NC(=O)c3cnc4ccccc4n3)C(=O)N[C@@H](C)C(=O)N(C)[C@@H]1C(=O)N(C)[C@@H](C(C)C)C(=O)OC[C@@H](NC(=O)c1cnc3ccccc3n1)C(=O)N[C@@H](C)C(=O)N2C [echinomycin] | – | – | – | – | production of IL-1β after ATP stimulation before LPS-priming and NLRP3 stimulation (NLRP3 inflammasome [1]; BMDMs, ATP-pre 3 mM 30 min with echinomycin 5 nM, LPS 1 μg/ml 4 h, nigericin 10 μM 30 min (FIG. 7f)): restored |
| antimycin A | – | did not increase | did not induce cell death | reduced | Nlrp3 and Illb gene induction by LPS (Nlrp3 and Illb): reduced |
